Structures can show the parent of a compound that is named as a salt.
Key:
Type in all cases: biochemical
[1] = molecular target: TNF-α converting enzyme (TACE) (Homo sapiens, UniProt P78536); assay: TACE inhibition (fluorescent peptidyl substrate); details: read-out: TACE IC50
Protocol: Using 96-well black microtiter plates, each well receives a solution composed of 10 μL TACE (final concentration 1 μg/mL), 70 μL Tris buffer, pH 7.4 containing 10% glycerol (final concentration 10 mM), and 10 μL of test compound solution in DMSO (final concentration 1 μM, DMSO concentration <1%) and incubated for 10 minutes at room temperature.
The reaction is read (excitation 340 nm, emission 420 nm) for 10 min. and the increase in fluorescence over time is plotted as a linear line. The slope of the line is calculated and represents the reaction rate.
The linearity of the reaction rate is confirmed (r^2>0.85). The mean (x±sem) of the control rate is calculated and compared for statistical significance (p<0.05) with drug-treated rates using Dunnett's multiple comparison test.

MMP-1 = molecular target: T1, MMP-1 (Homo sapiens, UniProt P03956); assay: MMP-1 inhibition (thiopeptide or fluorescent peptide substrate); details: read-out: MMP-1 IC50
T1 sequence (P03956 100-469): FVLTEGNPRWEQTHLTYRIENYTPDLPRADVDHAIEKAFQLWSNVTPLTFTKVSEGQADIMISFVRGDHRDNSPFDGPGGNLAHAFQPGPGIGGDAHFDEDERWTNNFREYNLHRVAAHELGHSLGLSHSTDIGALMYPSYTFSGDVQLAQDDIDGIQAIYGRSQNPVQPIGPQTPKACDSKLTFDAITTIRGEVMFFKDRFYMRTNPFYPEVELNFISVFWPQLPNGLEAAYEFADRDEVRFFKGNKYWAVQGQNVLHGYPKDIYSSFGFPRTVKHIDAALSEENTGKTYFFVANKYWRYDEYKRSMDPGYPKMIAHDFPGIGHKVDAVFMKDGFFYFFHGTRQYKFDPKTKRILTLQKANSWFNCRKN

MMP-9 = MMP-9 (Homo sapiens, UniProt P14780); assay: MMP-9 inhibition (thiopeptide or fluorescent peptide substrate); details: read-out: MMP-9 IC50
MMP-9, sequence (P14780 94-707): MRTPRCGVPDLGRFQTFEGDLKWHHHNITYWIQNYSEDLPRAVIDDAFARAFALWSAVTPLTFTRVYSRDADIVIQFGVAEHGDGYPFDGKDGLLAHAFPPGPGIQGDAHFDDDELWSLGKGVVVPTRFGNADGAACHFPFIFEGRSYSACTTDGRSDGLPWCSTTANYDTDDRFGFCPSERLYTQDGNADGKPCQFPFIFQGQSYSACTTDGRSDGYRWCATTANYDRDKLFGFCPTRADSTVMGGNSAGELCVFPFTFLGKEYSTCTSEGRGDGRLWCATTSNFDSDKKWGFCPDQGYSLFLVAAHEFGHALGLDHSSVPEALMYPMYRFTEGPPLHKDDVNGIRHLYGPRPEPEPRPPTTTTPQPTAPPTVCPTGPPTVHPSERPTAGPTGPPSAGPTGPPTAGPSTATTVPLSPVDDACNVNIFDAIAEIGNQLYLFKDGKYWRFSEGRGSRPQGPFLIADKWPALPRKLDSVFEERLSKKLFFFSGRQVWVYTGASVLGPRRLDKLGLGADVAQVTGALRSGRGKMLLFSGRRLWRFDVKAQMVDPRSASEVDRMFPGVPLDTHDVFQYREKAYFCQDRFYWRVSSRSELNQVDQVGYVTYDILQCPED

MMP-13 = MMP-13 (Homo sapiens, UniProt P45452); assay: MMP-13 inhibition (thiopeptide or fluorescent peptide substrate); details: read-out: MMP-13 IC50

TNF-α converting enzyme (TACE), sequence (P78536 215-824, species assumed): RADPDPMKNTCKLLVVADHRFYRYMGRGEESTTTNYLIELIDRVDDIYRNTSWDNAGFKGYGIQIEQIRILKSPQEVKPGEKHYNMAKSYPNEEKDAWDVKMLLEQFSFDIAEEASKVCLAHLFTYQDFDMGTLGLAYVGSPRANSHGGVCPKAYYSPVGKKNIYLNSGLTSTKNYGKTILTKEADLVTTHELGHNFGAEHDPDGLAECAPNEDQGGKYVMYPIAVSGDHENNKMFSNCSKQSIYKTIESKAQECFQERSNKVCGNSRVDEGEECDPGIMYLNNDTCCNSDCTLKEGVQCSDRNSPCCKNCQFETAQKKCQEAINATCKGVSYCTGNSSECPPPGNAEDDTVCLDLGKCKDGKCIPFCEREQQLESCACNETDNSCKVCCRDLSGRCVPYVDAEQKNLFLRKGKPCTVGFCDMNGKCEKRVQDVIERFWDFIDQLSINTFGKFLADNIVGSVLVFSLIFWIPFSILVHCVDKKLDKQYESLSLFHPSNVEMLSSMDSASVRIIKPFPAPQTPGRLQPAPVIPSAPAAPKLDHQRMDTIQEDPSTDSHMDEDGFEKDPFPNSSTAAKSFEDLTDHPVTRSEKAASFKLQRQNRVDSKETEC

Compound	IC50 [1]	IC50 (MMP-1)	IC50 (MMP-9)	IC50 (MMP-13)
CC#CCOc1ccc(S(=O)(=O)N(CCCCN2CCN(C)CC2)C(C(=O)NO)C(C)C)cc1 (stereo not shown) [Example 122, 2-{{[4-(2-Butynyloxy)phenyl]sulfonyl}[4-(4-methyl-1-piperazinyl)butyl]amino}-N-hydroxy-3-methylbutanamide]	128 nM	86 nM	135 nM	50 nM
CC#CCOc1ccc(S(=O)(=O)N(CCN2CCOCC2)C(C(=O)NO)C(C)C)cc1 (stereo not shown) [Example 123, 2-[[[4-(2-Butynyloxy)phenyl]sulfonyl][2-(4-morpholinyl)ethyl]amino]-N-hydroxy-3-methylbutanamide]	102 nM	244 nM	628 nM	89 nM
CC#CCOc1ccc(S(=O)(=O)N(CCN2CCOCC2)CC(=O)NO)cc1 [Example 124, 2-[{[4-(but-2-ynyloxy)Phenyl]sulfonyl}(2-morpholin-4-ylethyl)amino]-N-hydroxyacetamide Hydrochloride]	13 nM	1770 nM	211 nM	54 nM
CC#CCOc1ccc(S(=O)(=O)N(CC#CCN2CCN(C)CC2)C(C(=O)NO)C(C)C)cc1 (stereo not shown) [Example 125, 2-{{[4-(2-Butynyloxy)phenyl]sulfonyl}[4-(4-methyl-1-piperazinyl)-2-butynyl]amino}-N-hydroxy-3-methylbutanamide]	108 nM	505 nM	846 nM	151 nM
CC#CCOc1ccc(S(=O)(=O)N(CC#CCNC)C(C(=O)NO)C(C)C)cc1 (stereo not shown) [Example 127, 2-{{[4-(2-Butynyloxy)phenyl]sulfonyl}[4-(methylamino)-2-butynyl]amino}-N-hydroxy-3-methylbutanamide]	104 nM	187 nM	53 nM	37 nM
CC#CCOc1ccc(S(=O)(=O)N(C)[C@@H](C(=O)NO)C2CCC(N(CC)CC)CC2)cc1 (stereo partly drawn) [Example 128, ((2R)-{[4-(2-Butynyloxy)phenyl]sulfonyl}(methyl)amino)[(4-diethylamino)cyclohexyl]-N-hydroxyethamide]	376 nM	2370 nM	184 nM	212 nM
CC#CCOc1ccc(S(=O)(=O)N(C)CC(=O)NO)cn1 [Example 131, 2-[(6-but-2-ynyloxy-Pyridine-3-sulfonyl)-methyl-amino]-N-hydroxy-acetamide]	29 nM	~10000 nM	402 nM	428 nM
CC#CCOc1ccc(S(=O)(=O)N(CC#CCN2CCN(C)CC2)C(C)C(=O)NO)cc1 (stereo not shown) [Example 135]	21 nM	921 nM	142 nM	66 nM
CC#CCOc1ccc(S(=O)(=O)N(C)C(C(=O)NO)C(C)(C)SCCN2CCOCC2)cc1 (stereo not shown) [Example 140, 2-({[4-(2-Butynyloxy)phenyl]sulfonyl)(methyl)amino]-N-hydroxy-3 Methyl-3-[(2(4-morpholinylethyl)sulfanyl]-butanamide Hydrochloride]	86 nM	45 nM	103 nM	9.2 nM
CC#CCOc1ccc(S(=O)(=O)N(C)C(C(=O)NO)C(C)(C)SCCn2ccnc2)cc1 (stereo not shown) [Example 144, 2-({[4-(2-Butynyloxy)phenyl]sulfonyl)(methyl)amino]-N-hydroxy-3 Methyl-3-{[2-(1H-imidazol-1-yl)ethyl]sulfanyl}butanamide]	60 nM	16 nM	26 nM	5.9 nM
CC#CCOc1ccc(S(=O)(=O)N(C)C(C(=O)NO)C(C)(C)SCCC)cc1 (stereo not shown) [Example 151, 2-[(4-but-2-ynyloxy-Benenesulfonyl)-methyl-amino]-N-hydroxy-3-methyl-3-propylsulfanyl-butyramide]	31 nM	24 nM	31 nM	14 nM
CC#CCOc1ccc(S(=O)(=O)NC(C(=O)NO)c2ccc(O)cc2)cc1 (stereo not shown) [Example 176, 2-({[4-(2-Butynyloxy)phenyl]sulfonyl}amino)-N-hydroxy-2-(4-hydroxyphenyl)acetamide]	4 nM	~10000 nM	898 nM	103 nM
C#CCOc1ccc(C(NS(=O)(=O)c2ccc(OCC#CC)cc2)C(=O)NO)cc1 (stereo not shown) [Example 177, 2-({[4-(2-Butynyloxy)phenyl]sulfonyl}amino)-N-hydroxy-2-[4(2-propynyloxy)phenyl]acetamide]	4.8 nM	< 10000 nM	310 nM	57 nM
CC#CCOc1ccc(S(=O)(=O)N(C)C(C(=O)NO)c2ccc(OC)cc2)cc1 (stereo not shown) [Example 178, 2-[{[4-(2-Butynyloxy)phenyl]sulfonyl}(methyl)amino]-N-hydroxy-2-(4-methoxyphenyl)acetamide]	23 nM	482 nM	43 nM	14 nM
CC#CCOc1ccc(S(=O)(=O)N(C)C(C(=O)NO)c2ccc(OCCN3CCOCC3)cc2)cc1 (stereo not shown) [Example 179, 2-[{[4-(2-Butynyloxy)phenyl]sulfonyl}(methyl)amino]-N-hydroxy-2-{4-[2-(4-morpholinyl)ethoxy]phenyl}acetamide]	52 nM	546 nM	29 nM	11 nM
CC#CCOc1ccc(S(=O)(=O)N(C)C(C(=O)NO)c2ccc(OCCNC(=O)OC(C)(C)C)cc2)cc1 (stereo not shown) [Example 180, tert-Butyl 2-(4-[1-[{[4-(2-Butynyloxy)phenyl]sulfonyl}(methyl)amino]-2-(hydroxyamino)-2-oxoethyl]phenoxy}ethylcarbamate]	265 nM	599 nM	34 nM	9.3 nM
CC#CCOc1ccc(S(=O)(=O)N(C)C(C(=O)NO)c2ccc(OCCN)cc2)cc1 (stereo not shown) [Example 181, 2-[4-(2-Aminoethoxy)phenyl]-2-[{[4-(2-butynyloxy)phenyl]sulfonyl}(methyl)amino]-N-hydroxyacetamide]	16 nM	645 nM	26 nM	24 nM
CC#CCOc1ccc(S(=O)(=O)N(C)C(C(=O)NO)c2ccc(OCCN(C)C)cc2)cc1 (stereo not shown) [Example 182, 2-[{[4-(2-Butynyloxy)phenyl]sulfonyl}(methyl)amino]-2-{4-[2-(dimethylamino)ethoxy]phenyl}-N-hydroxyacetamide]	16 nM	487 nM	22 nM	15 nM
CC#CCOc1ccc(S(=O)(=O)N(C)C(C(=O)NO)c2ccc(OCCN3CCCC3)cc2)cc1 (stereo not shown) [Example 183, 2-[{[4-(2-Butynyloxy)phenyl]sulfonyl}(methyl)amino]-N-hydroxy-2-{4-[2-(1-pyrrolidinyl)ethoxy]phenyl}acetamide]	40 nM	497 nM	55 nM	42 nM
CC#CCOc1ccc(S(=O)(=O)N(C)C(C(=O)NO)c2ccc(OCCN3CCCC3=O)cc2)cc1 (stereo not shown) [Example 184, 2-[{[4-(2-Butynyloxy)phenyl]sulfonyl}(methyl)amino]-N-hydroxy-2-{4-[2-(2-oxo-1-pyrrolidinyl)ethoxy]phenyl}acetamide]	35 nM	434 nM	55 nM	11 nM
CC#CCOc1ccc(S(=O)(=O)N(C)C(C(=O)NO)c2ccc(OCCN3CCN(C(=O)OC(C)(C)C)CC3)cc2)cc1 (stereo not shown) [Example 185, tert-Butyl 4-(2-{4-[1-[{[4-(2-Butynyloxy)phenyl]sulfonyl}(methyl)amino]-2-(hydroxyamino)-2-oxoethyl]phenoxy}ethyl)-1-piperazinecarboxylate]	309 nM	839 nM	53 nM	27 nM
CC#CCOc1ccc(S(=O)(=O)N(C)C(C(=O)NO)c2ccc(OCCN3CCNCC3)cc2)cc1 (stereo not shown) [Example 186, 2-[{[4-(2-butynyloxy)phenyl]sulfonyl}(methyl)amino]-N-hydroxy-2-{4-[2-(1-piperazinyl)ethoxy]phenyl}acetamide]	31 nM	568 nM	32 nM	21 nM
CC#CCOc1ccc(S(=O)(=O)N(C)C(C(=O)NO)c2ccc(OCCCNC(=O)OC(C)(C)C)cc2)cc1 (stereo not shown) [Example 187, tert-Butyl 3-{4-[1-[{[4-(2-Butynyloxy)phenyl]sulfonyl}(methyl)amino]-2-(hydroxyamino)-2-oxoethyl]phenoxy}propylcarbamate]	199 nM	910 nM	46 nM	13 nM
CC#CCOc1ccc(S(=O)(=O)N(C)C(C(=O)NO)c2ccc(OCCCN)cc2)cc1 (stereo not shown) [Example 188, 2-[4-(3-Aminopropoxy)phenyl]-2-[{[4-(2-butynyloxy)phenyl]sulfonyl}(methyl)amino]-N-hydroxyacetamide]	25 nM	469 nM	48 nM	41 nM
CC#CCOc1ccc(S(=O)(=O)N(C)[C@@H](C(=O)NO)c2ccc(O[C@H]3CCN(C(=O)OC(C)(C)C)C3)cc2)cc1 [Example 189, tert-Butyl(3S)-3-{4-[(1R)-1-[{[4-(2-butynyloxy)phenyl]sulfonyl}(methyl)amino]-2-(hydroxyamino)-2-oxoethyl]phenoxy}-1-pyrrolidinecarboxylate]	231 nM	2440 nM	297 nM	120 nM

— US6716833B2, “Acetylenic α-amino acid-based sulfonamide hydroxamic acid tace inhibitors” (priority 1999, dated 2004)
